In patent US9296681B2, “Cycloalkylmethylamines” (Reviva Pharmaceuticals, Inc., priority 2006, dated 2016):

Tests used:
[1] = molecular target: human recombinant dopamine transporter (DAT) (Homo sapiens (Human), UniProt Q01959); test: radioligand binding assay, dopamine transporter; details: 11 test concentrations, duplicates
Procedure: (§1) The monoamine transporters inhibitory activities of selected compounds cycloalkylmethylamine derivatives comprising Formula (I) are reported herein. The compounds were evaluated using well established radioligand binding assays protocols (Galli, A. et al., J. Exp. Biol. 1995, 198, 2197-2212; Giros, B. et al., Trends Pharmcol. Sci. 1993, 14, 43-49; Gu, H. et al., J. Biol. Chem. 1994, 269(10), 7124-7130; Shearman, L. P. et al, Am. J. Physiol., 1998, 275 (6 Pt 1), C1621-1629; Wolf, W. A. et al., J. Biol. Chem. 1992, 267(29), 20820-20825). The human recombinant transporter proteins dopamine (DAT), norepinephrine (NET) and serotonin (SERT) were selected for the in vitro assays. The radioligand binding assays were carried out at 11 different test concentrations […] to 1 μM.
(§2) The assays were carried out in duplicates and the quantitative data are reported as Ki in the TABLE 1.

[2] = molecular target: human recombinant norepinephrine transporter (NET) (Homo sapiens (Human), UniProt P23975); test: radioligand binding assay, norepinephrine transporter; details: 11 test concentrations, duplicates
Procedure: as §1, §2

[3] = molecular target: human recombinant serotonin transporter (SERT) (Homo sapiens (Human), UniProt P31645); test: radioligand binding assay, serotonin transporter; details: 11 test concentrations, duplicates
Procedure: as §1, §2

[4] = active metabolites of sibutramine; cited from earlier work

Sequence of human recombinant dopamine transporter (DAT) (Q01959 whole entry): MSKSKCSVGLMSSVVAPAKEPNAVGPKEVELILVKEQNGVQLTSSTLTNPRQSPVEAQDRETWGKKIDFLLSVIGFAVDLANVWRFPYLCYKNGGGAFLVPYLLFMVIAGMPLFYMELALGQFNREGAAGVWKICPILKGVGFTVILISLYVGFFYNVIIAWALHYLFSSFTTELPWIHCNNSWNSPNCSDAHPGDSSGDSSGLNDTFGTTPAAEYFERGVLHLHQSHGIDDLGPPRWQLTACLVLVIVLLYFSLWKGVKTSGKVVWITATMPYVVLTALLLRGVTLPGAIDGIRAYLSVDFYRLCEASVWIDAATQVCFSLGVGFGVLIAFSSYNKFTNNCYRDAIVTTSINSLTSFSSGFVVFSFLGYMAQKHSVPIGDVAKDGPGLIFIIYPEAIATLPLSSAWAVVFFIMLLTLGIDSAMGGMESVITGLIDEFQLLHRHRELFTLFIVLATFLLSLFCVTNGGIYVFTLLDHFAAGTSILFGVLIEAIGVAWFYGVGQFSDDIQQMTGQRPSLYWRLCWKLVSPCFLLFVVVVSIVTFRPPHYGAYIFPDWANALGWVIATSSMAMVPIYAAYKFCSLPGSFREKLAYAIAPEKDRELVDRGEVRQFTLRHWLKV
Sequence of human recombinant norepinephrine transporter (NET) (P23975 whole entry): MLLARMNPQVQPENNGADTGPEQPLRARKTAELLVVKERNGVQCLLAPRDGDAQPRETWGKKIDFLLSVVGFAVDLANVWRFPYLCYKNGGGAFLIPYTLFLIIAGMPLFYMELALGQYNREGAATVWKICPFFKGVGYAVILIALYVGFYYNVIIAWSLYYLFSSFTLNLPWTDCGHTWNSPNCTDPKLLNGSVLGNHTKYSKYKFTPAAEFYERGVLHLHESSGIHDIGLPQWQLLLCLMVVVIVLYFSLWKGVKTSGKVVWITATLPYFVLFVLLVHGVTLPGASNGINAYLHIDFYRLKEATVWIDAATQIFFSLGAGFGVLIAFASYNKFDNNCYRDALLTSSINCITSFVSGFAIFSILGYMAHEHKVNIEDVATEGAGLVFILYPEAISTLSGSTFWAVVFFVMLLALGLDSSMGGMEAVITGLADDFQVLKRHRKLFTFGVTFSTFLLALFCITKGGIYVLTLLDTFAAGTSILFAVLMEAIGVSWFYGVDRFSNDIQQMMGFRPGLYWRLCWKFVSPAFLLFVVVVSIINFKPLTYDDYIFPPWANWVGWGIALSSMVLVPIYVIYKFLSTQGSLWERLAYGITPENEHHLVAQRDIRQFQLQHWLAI

Compound | Ki [1] | Ki [2] | Ki [3] | elimination half-life [4]
CC(C)CC(NCCCC(N)=O)C1(c2ccc(Cl)c(Cl)c2)CCC1 (racemic) [Compound 33a-Racemic] | 1.5 nM | 50.1 nM | 8.1 nM | –
CCOc1ccc(C2(C(CC(C)C)NCCCC(N)=O)CCC2)cc1 (racemic) [Compound 33b-Racemic] | 472 nM | > 10000 nM | 5.49 nM | –
CC(C)C[C@@H](NCCCC(N)=O)C1(c2ccc(Cl)c(Cl)c2)CCC1 (single isomer, unassigned; isomer-1) [33a-(R)-Isomer] | 0.91 nM | 30.3 nM | 2.3 nM | –
CC(C)C[C@H](NCCCC(N)=O)C1(c2ccc(Cl)c(Cl)c2)CCC1 (single isomer, unassigned; isomer-2) [33a-(S)-Isomer] | 126 nM | 3420 nM | 300 nM | –
CNC(CC(C)C)C1(c2ccc(Cl)cc2)CCC1 (centres unmarked) [Compound M1] | – | – | – | 14 h
CC(C)CC(N)C1(c2ccc(Cl)cc2)CCC1 (centres unmarked) [Compound M2] | – | – | – | 16 h
